Results from patent US8513251B2, “Pyridazinone compounds” (Takeda Pharmaceutical Company Limited, priority 2009, dated 2013).
pIC50: −log10 of the molar value. Where a name gives a salt, the structure may show the parent alone. Read-outs that look alike come from different tables or passages of the source.

What was measured:
Human PDE10A enzyme = target: T1, Human PDE10A enzyme (Homo sapiens, UniProt Q9Y233); assay: PDE enzyme inhibition, SPA (Scintillation Proximity Assay); format: biochemical; conditions: for inhibition at 1 µM: compound at 1 μM, read-out: Percent inhibition (1 μM); for pIC50: human PDE10A, [3H]cGMP substrate; for inhibition at 0.1 µM: read-out: Percent inhibition (0.1 μM)
T1 construct: Human PDE10A enzyme was generated from Sf9 or COS-7 cells transfected with the full-length gene; His-tag; made in house; host or cells: Sf9 or COS-7 cells
T1 sequence (Q9Y233 267-1055): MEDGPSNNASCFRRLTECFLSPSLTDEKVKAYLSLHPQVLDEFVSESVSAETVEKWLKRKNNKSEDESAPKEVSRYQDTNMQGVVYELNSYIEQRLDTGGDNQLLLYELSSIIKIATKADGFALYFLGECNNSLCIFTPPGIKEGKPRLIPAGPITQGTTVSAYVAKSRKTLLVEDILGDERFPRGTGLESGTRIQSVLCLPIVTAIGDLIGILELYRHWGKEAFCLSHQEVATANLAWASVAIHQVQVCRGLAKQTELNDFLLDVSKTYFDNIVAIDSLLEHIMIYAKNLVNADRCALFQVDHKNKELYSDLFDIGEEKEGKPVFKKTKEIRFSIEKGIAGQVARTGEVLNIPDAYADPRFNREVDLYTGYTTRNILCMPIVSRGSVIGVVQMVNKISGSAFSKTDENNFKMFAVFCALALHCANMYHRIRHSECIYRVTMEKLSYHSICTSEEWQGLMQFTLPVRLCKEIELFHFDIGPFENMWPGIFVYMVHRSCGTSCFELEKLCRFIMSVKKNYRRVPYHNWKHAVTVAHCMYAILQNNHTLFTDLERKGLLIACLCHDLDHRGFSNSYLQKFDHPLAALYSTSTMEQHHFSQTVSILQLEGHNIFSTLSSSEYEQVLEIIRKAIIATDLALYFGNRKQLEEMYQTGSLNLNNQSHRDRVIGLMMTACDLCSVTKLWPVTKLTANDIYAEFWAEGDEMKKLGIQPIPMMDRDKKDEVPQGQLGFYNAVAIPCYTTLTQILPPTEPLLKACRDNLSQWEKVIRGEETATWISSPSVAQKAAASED
Experimental: Human PDE10A enzyme was generated from Sf9 or COS-7 cells transfected with the full-length gene. Cloned enzyme was extracted from homogenized cell pellets. The extracted enzyme from Sf9 cells was partially purified using His-tag affinity column. The enzyme was stored at −70° C. until use. PDE activity was measured using a SPA (Scintillation Proximity Assay) (GE Healthcare). To evaluate the inhibitory activity, 10 μL of serial diluted compounds were incubated with 20 μL of PDE enzyme in assay buffer (50 mM HEPES-NaOH, 8.3 mM MgCl2, 1.7 mM EGTA, 0.1% BSA (pH 7.4)) for 30 min. at room temperature. Final concentration of DMSO in the assay was 1 percent as compounds were tested in duplicate in 96-well half-area plates (Corning). To start the reaction, 10 μL of substrate [3H] cGMP (25 or 50 nM; enclosed in SPA kits from GE Healthcare or purchased from PerkinElmer, respectively) was added for a final assay volume of 40 μL. After 60 min incubation at room temperature, yttrium SPA beads containing Zinc sulphate were added (20 μL at 6 mg/mL) to terminate the PDE reaction. After being settled for 60 min., assay plates were counted in a scintillation counter (PerkinElmer) to allow calculation of inhibition rate and IC50. Inhibition rate was calculated on the basis of 0% control wells with DMSO and 100% control wells without enzyme.

Row | inhibition at 0.1 µM (Human PDE10A enzyme; Table 2, compound at 0.1 μM) [%] | pIC50 (Human PDE10A enzyme; Table 2) | Structure (SMILES) | also measured
1 | 103 | > 8.00 | COc1cn(-c2ccc(N3CCCC3=O)cc2F)nc(-c2ccnn2-c2ccccc2)c1=O [Example 108, 1-[2-Fluoro-4-(2-oxopyrrolidin-1-yl)phenyl]-5-methoxy-3-(1-phenyl-1H-pyrazol-5-yl)pyridazin-4(1H)-one] | 
2 | 99 | > 8.00 | COc1cn(-c2ccc(N3CCOC3=O)cc2F)nc(-c2ccnn2-c2ccccc2)c1=O [Example 109, 1-[2-Fluoro-4-(2-oxo-1,3-oxazolidin-3-yl)phenyl]-5-methoxy-3-(1-phenyl-1H-pyrazol-5-yl)pyridazin-4(1H)-one] | 
3 | 97 | > 8.00 | COc1cn(-c2ccc(-n3ccnc3)cc2F)nc(-c2ccnn2-c2ccccc2)c1=O [Example 111, 1-[2-Fluoro-4-(1H-imidazol-1-yl)phenyl]-5-methoxy-3-(1-phenyl-1H-pyrazol-5-yl)pyridazin-4(1H)-one] | 
4 | 99 | > 8.00 | COc1cn(-c2cccc(-c3cnn(C)c3)c2F)nc(-c2ccnn2-c2ccccc2)c1=O [Example 113, 1-[2-Fluoro-3-(1-methyl-1H-pyrazol-4-yl)phenyl]-5-methoxy-3-(1-phenyl-1H-pyrazol-5-yl)pyridazin-4(1H)-one] | 
5 | 102 | > 8.00 | COc1cn(-c2ccc(-c3cnn(C)c3)cc2F)nc(-c2ccnn2-c2ccccc2)c1=O [Example 114, 1-[2-Fluoro-4-(1-methyl-1H-pyrazol-4-yl)phenyl]-5-methoxy-3-(1-phenyl-1H-pyrazol-5-yl)pyridazin-4(1H)-one] | 
6 | 99 | > 8.00 | COc1cn(-c2ccc(-c3cnn(C(F)F)c3)cc2F)nc(-c2ccnn2-c2ccccc2)c1=O [Example 116, 1-{4-[1-(Difluoromethyl)-1H-pyrazol-4-yl]-2-fluorophenyl}-5-methoxy-3-(1-phenyl-1H-pyrazol-5-yl)pyridazin-4(1H)-one] | 
7 | 100 | > 8.00 | COc1cn(-c2ccc(-n3cc(F)c(F)c3)cc2F)nc(-c2ccnn2-c2ccccc2)c1=O [Example 119, 1-[4-(3,4-Difluoro-1H-pyrrol-1-yl)-2-fluorophenyl]-5-methoxy-3-(1-phenyl-1H-pyrazol-5-yl)pyridazin-4(1H)-one] | 
8 | 99 | > 8.00 | COc1cn(-c2ccc(-n3nccc3OC(F)F)cc2F)nc(-c2ccnn2-c2ccccc2)c1=O [Example 123, 1-{4-[5-(Difluoromethoxy)-1H-pyrazol-1-yl]-2-fluorophenyl}-5-methoxy-3-(1-phenyl-1H-pyrazol-5-yl)pyridazin-4(1H)-one] | 
9 | 97 | > 8.00 | COc1cn(-c2ccc(-n3c(=O)ccn3C(F)F)cc2F)nc(-c2ccnn2-c2ccccc2)c1=O [Example 124, 1-{4-[2-(Difluoromethyl)-5-oxo-2,5-dihydro-1H-pyrazol-1-yl]-2-fluorophenyl}-5-methoxy-3-(1-phenyl-1H-pyrazol-5-yl)pyridazin-4(1H)-one] | 
10 | 101 | > 8.00 | COc1cn(-c2ccc(-n3cccn3)cc2F)nc(-c2ccnn2-c2ccccc2F)c1=O [Example 163, 3-[1-(2-Fluorophenyl)-1H-pyrazol-5-yl]-1-[2-fluoro-4-(1H-pyrazol-1-yl)phenyl]-5-methoxypyridazin-4(1H)-one] | 
11 | 92 | > 8.00 | COc1cn(-c2ccc(N3CCN(C)C3=O)cc2F)nc(-c2ccnn2-c2ccccc2)c1=O [Example 178, 1-[2-fluoro-4-(3-methyl-2-oxoimidazolidin-1-yl)phenyl]-5-methoxy-3-(1-phenyl-1H-pyrazol-5-yl)pyridazin-4(1H)-one] | 
12 | 96 | > 8.00 | COc1cn(-c2ccc(N3CC=CC3)cc2F)nc(-c2ccnn2-c2ccccc2)c1=O [Example 179, 1-[4-(2,5-Dihydro-1H-pyrrol-1-yl)-2-fluorophenyl]-5-methoxy-3-(1-phenyl-1H-pyrazol-5-yl)pyridazin-4(1H)-one] | 
13 | 96 | > 8.00 | COc1cn(-c2ccc(-n3cc(Cl)cn3)cc2F)nc(-c2ccnn2-c2ccccc2)c1=O [Example 180, 1-[4-(4-Chloro-1H-pyrazol-1-yl)-2-fluorophenyl]-5-methoxy-3-(1-phenyl-1H-pyrazol-5-yl)pyridazin-4(1H)-one] | 
14 | 100 | > 8.00 | COc1cn(-c2ccc(N3CCC(C)(O)CC3)cc2F)nc(-c2ccnn2-c2ccccc2)c1=O [Example 186, 1-[2-Fluoro-4-(4-hydroxy-4-methylpiperidin-1-yl)phenyl]-5-methoxy-3-(1-phenyl-1H-pyrazol-5-yl)pyridazin-4(1H)-one] | 
15 | 100 | > 8.00 | COc1cn(-c2ccc(N3CC(C)(C)CC3=O)cc2F)nc(-c2ccnn2-c2ccccc2)c1=O [Example 189, 1-[4-(4,4-Dimethyl-2-oxopyrrolidin-1-yl)-2-fluorophenyl]-5-methoxy-3-(1-phenyl-1H-pyrazol-5-yl)pyridazin-4(1H)-one] | 
16 | 100 | > 8.00 | COc1cn(-c2ccc(N3CC(C)(C)OC3=O)cc2F)nc(-c2ccnn2-c2ccccc2)c1=O [Example 190, 1-[4-(5,5-Dimethyl-2-oxo-1,3-oxazolidin-3-yl)-2-fluorophenyl]-5-methoxy-3-(1-phenyl-1H-pyrazol-5-yl)pyridazin-4(1H)-one] | 
17 | 101 | > 8.00 | COc1cc(-n2cccn2)ccc1-n1cc(OC)c(=O)c(-c2ccnn2-c2ccccc2)n1 [Example 192, 5-Methoxy-1-[2-methoxy-4-(1H-pyrazol-1-yl)phenyl]-3-(1-phenyl-1H-pyrazol-5-yl)pyridazin-4(1H)-one] | 

Second part, the compound before the results:

Row | Structure (SMILES) | inhibition at 0.1 µM (Human PDE10A enzyme; Table 2, compound at 0.1 μM) [%] | pIC50 (Human PDE10A enzyme; Table 2) | also measured
18 | COc1cn(-c2ccc(OS(=O)(=O)C(F)(F)F)cc2F)nc(-c2ccnn2-c2ccccc2)c1=O (as salt: methanesulfonate) [Example 93, 3-Fluoro-4-[5-methoxy-4-oxo-3-(1-phenyl-1H-pyrazol-5-yl)pyridazin-1(4H)-yl]phenyl trifluoromethanesulfonate] |  |  | melting point: 108 to 110 °C
19 | N#Cc1ccc(-n2ccc(=O)c(-c3ccnn3-c3ccccc3)n2)cc1 [Example 46, 4-[4-Oxo-3-(1-phenyl-1H-pyrazol-5-yl)pyridazin-1(4H)-yl]benzonitrile] |  |  | inhibition at 1 µM (Human PDE10A enzyme; Table 1): 97%; pIC50 (Human PDE10A enzyme; Table 1): 6.70 to 8.00
20 | O=c1ccn(-c2ccc(S(=O)(=O)N3CCOCC3)cc2)nc1-c1ccnn1-c1ccccc1 [Example 48, 1-[4-(Morpholin-4-ylsulfonyl)phenyl]-3-(1-phenyl-1H-pyrazol-5-yl)pyridazin-4(1H)-one] |  |  | inhibition at 1 µM (Human PDE10A enzyme; Table 1): 100%; pIC50 (Human PDE10A enzyme; Table 1): > 8.00
21 | NC(=O)c1ccc(-n2ccc(=O)c(-c3ccnn3-c3ccccc3)n2)cc1 [Example 49, 4-[4-Oxo-3-(1-phenyl-1H-pyrazol-5-yl)pyridazin-1(4H)-yl]benzamide] |  |  | inhibition at 1 µM (Human PDE10A enzyme; Table 1): 98%; pIC50 (Human PDE10A enzyme; Table 1): > 8.00
22 | CCOc1cn(-c2cccc(C(F)(F)F)c2)nc(-c2ccnn2-c2ccccc2)c1=O [Example 59, 5-Ethoxy-3-(1-phenyl-1H-pyrazol-5-yl)-1-[3-(trifluoromethyl)phenyl]pyridazin-4(1H)-one] |  |  | inhibition at 1 µM (Human PDE10A enzyme; Table 1): 96%; pIC50 (Human PDE10A enzyme; Table 1): 6.70 to 8.00
23 | COc1cn(-c2ccc(N3CC(F)(F)C3)cc2F)nc(-c2ccnn2-c2ccccc2)c1=O [Example 102, 1-[4-(3,3-Difluoroazetidin-1-yl)-2-fluorophenyl]-5-methoxy-3-(1-phenyl-1H-pyrazol-5-yl)pyridazin-4(1H)-one] | 103 | > 8.00 | 
24 | COc1cn(-c2ccc(N3CCC(F)(F)C3)cc2F)nc(-c2ccnn2-c2ccccc2)c1=O [Example 103, 1-[4-(3,3-Difluoropyrrolidin-1-yl)-2-fluorophenyl]-5-methoxy-3-(1-phenyl-1H-pyrazol-5-yl)pyridazin-4(1H)-one] | 99 | > 8.00 | 
25 | COc1cn(-c2ccc(N3CC(F)(F)C(F)(F)C3)cc2F)nc(-c2ccnn2-c2ccccc2)c1=O [Example 104, 1-[2-Fluoro-4-(3,3,4,4-tetrafluoropyrrolidin-1-yl)phenyl]-5-methoxy-3-(1-phenyl-1H-pyrazol-5-yl)pyridazin-4(1H)-one] | 99 | > 8.00 | 
26 | COc1cn(-c2ccc(N3CCC(F)(F)CC3)cc2F)nc(-c2ccnn2-c2ccccc2)c1=O [Example 106, 1-[4-(4,4-Difluoropiperidin-1-yl)-2-fluorophenyl]-5-methoxy-3-(1-phenyl-1H-pyrazol-5-yl)pyridazin-4(1H)-one] | 100 | > 8.00 | 
27 | COc1cn(-c2ccc(-n3cccn3)cc2F)nc(-c2ccnn2-c2ccccc2)c1=O [Example 120, 1-[2-Fluoro-4-(1H-pyrazol-1-yl)phenyl]-5-methoxy-3-(1-phenyl-1H-pyrazol-5-yl)pyridazin-4(1H)-one] |  |  | inhibition at 0.1 µM (Human PDE10A enzyme): 100%
28 | COc1cn(-c2ccc(-n3cccn3)cc2F)nc(-c2ccnn2-c2cccc(Cl)c2)c1=O [Example 164, 3-[1-(3-Chlorophenyl)-1H-pyrazol-5-yl]-1-[2-fluoro-4-(1H-pyrazol-1-yl)phenyl]-5-methoxypyridazin-4(1H)-one] | 101 | > 8.00 | 
